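Where inhibition never reached the appropriate level, the endpoint shown equals the highest concentration tested. Otherwise, values were interpolated linearly from a five-concentration, 48-hour dose response in 96-well plates. At the GI50, growth is halved. Definition used: TGI = concentration required for complete inhibition of growth.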
Legend:
Test in all cases: DTP human tumour cell line panel, 48 h
786-0 renal = system: 786-0 renal
A498 renal = system: A498 renal
A549 NSCLC = system: A549 NSCLC
ACHN renal = system: ACHN renal
BT-549 breast = system: BT-549 breast
CAKI-1 renal = system: CAKI-1 renal
CCRF-CEM leukemia = system: CCRF-CEM leukemia
COLO 205 colon = system: COLO 205 colon
DU-145 prostate = system: DU-145 prostate
EKVX NSCLC = system: EKVX NSCLC
HCC-2998 colon = system: HCC-2998 colon
HCT-116 colon = system: HCT-116 colon
HCT-15 colon = system: HCT-15 colon
HL-60(TB) leukemia = system: HL-60(TB) leukemia
HOP-62 NSCLC = system: HOP-62 NSCLC
HOP-92 NSCLC = system: HOP-92 NSCLC
HS 578T breast = system: HS 578T breast
HT29 colon = system: HT29 colon
IGROV1 ovarian = system: IGROV1 ovarian
K-562 leukemia = system: K-562 leukemia
KM12 colon = system: KM12 colon
LOX IMVI melanoma = system: LOX IMVI melanoma
M14 melanoma = system: M14 melanoma
MALME-3M melanoma = system: MALME-3M melanoma
MCF7 breast = system: MCF7 breast
MDA-MB-231 breast = system: MDA-MB-231 breast
MDA-MB-435 = system: MDA-MB-435
MOLT-4 leukemia = system: MOLT-4 leukemia
NCI-H226 lung = system: NCI-H226 lung
NCI-H460 lung = system: NCI-H460 lung
NCI-H522 lung = system: NCI-H522 lung
NCI/ADR-RES ovarian = system: NCI/ADR-RES ovarian
OVCAR-3 ovarian = system: OVCAR-3 ovarian
OVCAR-4 ovarian = system: OVCAR-4 ovarian
OVCAR-5 ovarian = system: OVCAR-5 ovarian
OVCAR-8 ovarian = system: OVCAR-8 ovarian
PC-3 prostate = system: PC-3 prostate
RPMI-8226 leukemia = system: RPMI-8226 leukemia
RXF 393 renal = system: RXF 393 renal
SF-268 CNS = system: SF-268 CNS
SF-295 CNS = system: SF-295 CNS
SF-539 CNS = system: SF-539 CNS
SK-MEL-2 melanoma = system: SK-MEL-2 melanoma
SK-MEL-28 melanoma = system: SK-MEL-28 melanoma
SK-MEL-5 melanoma = system: SK-MEL-5 melanoma
SK-OV-3 ovarian = system: SK-OV-3 ovarian
SN12C renal = system: SN12C renal
SNB-19 CNS = system: SNB-19 CNS
SNB-75 CNS = system: SNB-75 CNS
SR leukemia = system: SR leukemia
SW-620 colon = system: SW-620 colon
T-47D breast = system: T-47D breast
TK-10 renal = system: TK-10 renal
U251 CNS = system: U251 CNS
UACC-257 melanoma = system: UACC-257 melanoma
UACC-62 melanoma = system: UACC-62 melanoma
UO-31 renal = system: UO-31 renal

CN(C)CCCOc1c2ccc(Cl)cc2nc2c1oc1ccccc12
GI50 (786-0 renal): 1780 nM
TGI (786-0 renal): 11200 nM
GI50 (A498 renal): 3140 nM
TGI (A498 renal): 8920 nM
GI50 (A549 NSCLC): 1550 nM
TGI (A549 NSCLC): 11200 nM
GI50 (ACHN renal): 623 nM
TGI (ACHN renal): 12500 nM
GI50 (BT-549 breast): 2080 nM
TGI (BT-549 breast): 7230 nM
GI50 (CAKI-1 renal): 888 nM
TGI (CAKI-1 renal): 10400 nM
GI50 (CCRF-CEM leukemia): 2100 nM
TGI (CCRF-CEM leukemia): 11100 nM
GI50 (COLO 205 colon): 1080 nM
TGI (COLO 205 colon): 2520 nM
GI50 (DU-145 prostate): 2260 nM
TGI (DU-145 prostate): 14000 nM
GI50 (EKVX NSCLC): 2640 nM
TGI (EKVX NSCLC): 10300 nM
GI50 (HCC-2998 colon): 1030 nM
TGI (HCC-2998 colon): 2530 nM
GI50 (HCT-116 colon): 437 nM
TGI (HCT-116 colon): 10100 nM
GI50 (HCT-15 colon): 1070 nM
TGI (HCT-15 colon): 10100 nM
GI50 (HL-60(TB) leukemia): 1830 nM
TGI (HL-60(TB) leukemia): 5880 nM
GI50 (HOP-62 NSCLC): 2090 nM
TGI (HOP-62 NSCLC): 11600 nM
GI50 (HOP-92 NSCLC): 584 nM
TGI (HOP-92 NSCLC): 3590 nM
GI50 (HS 578T breast): 2150 nM
TGI (HS 578T breast): 10100 nM
GI50 (HT29 colon): 713 nM
TGI (HT29 colon): 3000 nM
GI50 (IGROV1 ovarian): 2140 nM
TGI (IGROV1 ovarian): 12000 nM
GI50 (K-562 leukemia): 620 nM
TGI (K-562 leukemia): 13900 nM
GI50 (KM12 colon): 1870 nM
TGI (KM12 colon): 11900 nM
GI50 (LOX IMVI melanoma): 516 nM
TGI (LOX IMVI melanoma): 1830 nM
GI50 (M14 melanoma): 1500 nM
TGI (M14 melanoma): 3130 nM
GI50 (MALME-3M melanoma): 1730 nM
TGI (MALME-3M melanoma): 3820 nM
GI50 (MCF7 breast): 1170 nM
TGI (MCF7 breast): 5480 nM
GI50 (MDA-MB-231 breast): 1800 nM
TGI (MDA-MB-231 breast): 8490 nM
GI50 (MDA-MB-435): 1550 nM
TGI (MDA-MB-435): 3090 nM
GI50 (MOLT-4 leukemia): 497 nM
TGI (MOLT-4 leukemia): 10500 nM
GI50 (NCI-H226 lung): 2140 nM
TGI (NCI-H226 lung): 6770 nM
GI50 (NCI-H460 lung): 557 nM
TGI (NCI-H460 lung): 10200 nM
GI50 (NCI-H522 lung): 1570 nM
TGI (NCI-H522 lung): 4610 nM
GI50 (NCI/ADR-RES ovarian): 677 nM
TGI (NCI/ADR-RES ovarian): 6650 nM
GI50 (OVCAR-3 ovarian): 2620 nM
TGI (OVCAR-3 ovarian): 12700 nM
GI50 (OVCAR-4 ovarian): 1750 nM
TGI (OVCAR-4 ovarian): 7310 nM
GI50 (OVCAR-5 ovarian): 2090 nM
TGI (OVCAR-5 ovarian): 8040 nM
GI50 (OVCAR-8 ovarian): 1370 nM
TGI (OVCAR-8 ovarian): 10900 nM
GI50 (PC-3 prostate): 1710 nM
TGI (PC-3 prostate): 5410 nM
GI50 (RPMI-8226 leukemia): 2070 nM
TGI (RPMI-8226 leukemia): 7520 nM
GI50 (RXF 393 renal): 1370 nM
TGI (RXF 393 renal): 3710 nM
GI50 (SF-268 CNS): 1620 nM
TGI (SF-268 CNS): 11200 nM
GI50 (SF-295 CNS): 2180 nM
TGI (SF-295 CNS): 10800 nM
GI50 (SF-539 CNS): 1430 nM
TGI (SF-539 CNS): 2840 nM
GI50 (SK-MEL-2 melanoma): 1860 nM
TGI (SK-MEL-2 melanoma): 3530 nM
GI50 (SK-MEL-28 melanoma): 1810 nM
TGI (SK-MEL-28 melanoma): 3430 nM
GI50 (SK-MEL-5 melanoma): 1780 nM
TGI (SK-MEL-5 melanoma): 3210 nM
GI50 (SK-OV-3 ovarian): 2420 nM
TGI (SK-OV-3 ovarian): 9550 nM
GI50 (SN12C renal): 1020 nM
TGI (SN12C renal): 11200 nM
GI50 (SNB-19 CNS): 2370 nM
TGI (SNB-19 CNS): 11900 nM
GI50 (SNB-75 CNS): 1480 nM
TGI (SNB-75 CNS): 2850 nM
GI50 (SR leukemia): 697 nM
TGI (SR leukemia): 6720 nM
GI50 (SW-620 colon): 535 nM
TGI (SW-620 colon): 8310 nM
GI50 (T-47D breast): 2640 nM
TGI (T-47D breast): 9870 nM
GI50 (TK-10 renal): 2960 nM
TGI (TK-10 renal): 7620 nM
GI50 (U251 CNS): 1660 nM
TGI (U251 CNS): 10700 nM
GI50 (UACC-257 melanoma): 1850 nM
TGI (UACC-257 melanoma): 3790 nM
GI50 (UACC-62 melanoma): 1750 nM
TGI (UACC-62 melanoma): 3610 nM
GI50 (UO-31 renal): 553 nM
TGI (UO-31 renal): 3370 nM

— PubChem BioAssay (NCI)
